What was measured:
Conditions in all cases: incubation time: 72 h
BT-549 [1] = experiment: normalised response (% of control), CellTox Green; higher = less cell death (100 = DMSO, 0 = benzethonium chloride kill control)
Procedure, shortened: (§1)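 Each entry is the normalised signal at a single concentration within a series. The series comprised 5 concentrations in 10-fold steps over a compound-specific 10,000-fold range, placed in 384-well plates into which breast cancer cell lines were seeded as 20 µl suspension and incubated 72 h. CellTox Green (485/520 nm) fluorescence and then CellTiter-Glo luminescence were read, with signals normalised per plate to 0.1 % DMSO (100) and a positive kill control (0).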

CAL-51 [2] = experiment: as above
Procedure, shortened: as §1

BT-474 [3] = experiment: as above
Procedure, shortened: as §1

CAL-85-1 [4] = experiment: as above
Procedure, shortened: as §1

Hs578T [5] = experiment: as above
Procedure, shortened: as §1

MFM-223 [6] = experiment: as above
Procedure, shortened: as §1

HCC1143 [7] = experiment: as above
Procedure, shortened: as §1

MDA-MB-468 [8] = experiment: as above
Procedure, shortened: as §1

HCC1937 [9] = experiment: as above
Procedure, shortened: as §1

CAL-120 [10] = experiment: as above
Procedure, shortened: as §1

CAL-148 [11] = experiment: as above
Procedure, shortened: as §1

MDA-MB-436 [12] = experiment: as above
Procedure, shortened: as §1

MCF-10A [13] = experiment: as above
Procedure, shortened: as §1

MDA-MB-453 [14] = experiment: as above
Procedure, shortened: as §1

HCC1599 [15] = experiment: as above
Procedure, shortened: as §1

MDA-MB-231 [16] = experiment: as above
Procedure, shortened: as §1

DU-4475 [17] = experiment: as above
Procedure, shortened: as §1

HDQ-P1 [18] = experiment: as above
Procedure, shortened: as §1

BT-549 [19] = experiment: normalised response (% of control), CellTiter-Glo; higher = more viable cells (100 = DMSO, 0 = benzethonium chloride kill control)
Procedure, shortened: as §1

CAL-51 [20] = experiment: as above
Procedure, shortened: as §1

BT-474 [21] = experiment: as above
Procedure, shortened: as §1

CAL-85-1 [22] = experiment: as above
Procedure, shortened: as §1

Hs578T [23] = experiment: as above
Procedure, shortened: as §1

MFM-223 [24] = experiment: as above
Procedure, shortened: as §1

HCC1143 [25] = experiment: as above
Procedure, shortened: as §1

MDA-MB-468 [26] = experiment: as above
Procedure, shortened: as §1

HCC1937 [27] = experiment: as above
Procedure, shortened: as §1

CAL-120 [28] = experiment: as above
Procedure, shortened: as §1

CAL-148 [29] = experiment: as above
Procedure, shortened: as §1

SK-BR-3 = experiment: as above
Procedure, shortened: as §1

MDA-MB-436 [30] = experiment: as above
Procedure, shortened: as §1

MCF-10A [31] = experiment: as above
Procedure, shortened: as §1

MDA-MB-453 [32] = experiment: as above
Procedure, shortened: as §1

HCC1599 [33] = experiment: as above
Procedure, shortened: as §1

MDA-MB-231 [34] = experiment: as above
Procedure, shortened: as §1

DU-4475 [35] = experiment: as above
Procedure, shortened: as §1

HDQ-P1 [36] = experiment: as above
Procedure, shortened: as §1

Compound | normalised response (BT-549 [1]) | normalised response (CAL-51 [2]) | normalised response (BT-474 [3]) | normalised response (CAL-85-1 [4]) | normalised response (Hs578T [5]) | normalised response (MFM-223 [6]) | normalised response (HCC1143 [7]) | normalised response (MDA-MB-468 [8]) | normalised response (HCC1937 [9]) | normalised response (CAL-120 [10]) | normalised response (CAL-148 [11]) | normalised response (MDA-MB-436 [12]) | normalised response (MCF-10A [13]) | normalised response (MDA-MB-453 [14]) | normalised response (HCC1599 [15]) | normalised response (MDA-MB-231 [16]) | normalised response (DU-4475 [17]) | normalised response (HDQ-P1 [18]) | normalised response (BT-549 [19]) | normalised response (CAL-51 [20]) | normalised response (BT-474 [21]) | normalised response (CAL-85-1 [22]) | normalised response (Hs578T [23]) | normalised response (MFM-223 [24]) | normalised response (HCC1143 [25]) | normalised response (MDA-MB-468 [26]) | normalised response (HCC1937 [27]) | normalised response (CAL-120 [28]) | normalised response (CAL-148 [29]) | normalised response (SK-BR-3) | normalised response (MDA-MB-436 [30]) | normalised response (MCF-10A [31]) | normalised response (MDA-MB-453 [32]) | normalised response (HCC1599 [33]) | normalised response (MDA-MB-231 [34]) | normalised response (DU-4475 [35]) | normalised response (HDQ-P1 [36])
O=C(O)C1(C(=O)O)CCC1.[NH2-].[NH2-].[Pt+2] [Carboplatin] (1000 nM) | 62% | 106% | 97.7% | 117% | 103% | 89.6% | 101% | 143% | 113% | 104% | 105% | 95.4% | 115% | 111% | 104% | 106% | 107% | 100% | 94.2% | 108% | 100% | 95.7% | 95.1% | 101% | 101% | 100% | 95% | 95.3% | 96.5% | 103% | 98.3% | 105% | 97.6% | 96.4% | 94.4% | 93.9% | 95.4%
O=C(/C=C/c1cccnc1)NCCCCC1CCN(C(=O)c2ccccc2)CC1 [Daporinad] (100 nM) | 105% | 105% | 98.6% | 101% | 20% | 70.9% | 104% | 125% | 27.6% | 91.2% | 95% | 103% | 98.1% | 104% | 78.1% | 112% | 98.8% | 103% | 100% | 102% | 28.7% | 16% | 8.08% | 4.38% | 14.3% | 0.85% | 21.3% | 17% | 69% | 107% | 54% | 11.1% | 14.3% | 0.54% | 25.8% | 4.65% | 19.1%
O=C(Cc1ccc(-c2ccc(OCCN3CCOCC3)cc2)cn1)NCc1ccccc1 [KX2-391] (1000 nM) | 76.7% | 30.9% | 80.8% | 68.1% | 38.4% | 44.2% | 113% | 23.4% | 115% | 90.4% | 74.2% | 83.1% | 38.9% | 49.9% | 71.9% | -59.4% | 101% | 99.8% | 43.6% | 19.3% | 52.5% | 45.3% | 19.7% | 44.9% | 61.5% | 33.4% | 72.8% | 59.4% | 41.4% | 14.9% | 25.2% | 75.2% | 72% | 14.8% | 46.6% | 45.6% | 70.8%
N#Cc1ccc(C(c2ccc(C#N)cc2)n2cncn2)cc1 [Letrozole] (1000 nM) | 89.6% | 98.2% | 100% | 105% | 106% | 88.4% | 101% | 75.9% | 67.6% | 103% | 101% | 87.6% | 114% | 96.4% | 85.3% | 98.9% | 100% | 102% | 103% | 80.8% | 94.4% | 98.8% | 97.1% | 100% | 108% | 103% | 103% | 99% | 94.7% | 99.5% | 105% | 101% | 99.3% | 104% | 96.5% | 98.8% | 102%
C=CCc1cccc(/C=N/NC(=O)CN2CCN(Cc3ccccc3)CC2)c1O [PAC-1] (1000 nM) | 61.6% | 73.1% | 98.8% | 105% | 104% | 102% | 119% | 128% | 92.5% | 102% | 104% | 89.7% | 112% | 106% | 98.4% | 107% | 101% | 112% | 75.1% | 67.2% | 97.9% | 98.5% | 103% | 100% | 103% | 101% | 92.7% | 97.5% | 101% | 109% | 86% | 116% | 93.6% | 120% | 96.8% | 102% | 93.3%
Nc1nc2[nH]cc(CCc3ccc(C(=O)N[C@@H](CCC(=O)O)C(=O)O)cc3)c2c(=O)[nH]1 [Pemetrexed] (1000 nM) | 82.9% | 98.2% | 99.5% | 105% | 101% | 103% | 115% | 122% | 112% | 100% | 89.9% | 108% | 103% | 106% | 92% | 88% | 98.2% | 110% | 97.1% | 90.6% | 54.4% | 54.5% | 17.1% | 91.5% | 93.3% | 90% | 70.3% | 88.1% | 95.7% | 68.2% | 80.7% | 97.6% | 92.2% | 67.4% | 65.6% | 89.5% | 83.2%
CC[C@H](C)C(=O)O[C@H]1C[C@H](O)C=C2C=C[C@H](C)[C@H](CC[C@@H](O)C[C@@H](O)CC(=O)O)[C@H]21 [Pravastatin] (1000 nM) | 85.2% | 87.6% | 99.3% | 93.4% | 95.2% | 98.5% | 59% | 134% | 95.4% | 100% | 99.8% | -66.6% | 108% | 105% | 95.4% | 85.4% | 99% | 112% | 96.3% | 54.5% | 85.8% | 95.5% | 98.4% | 85.5% | 94.3% | 89.9% | 86.9% | 95.3% | 87.6% | 86.2% | 18.9% | 96.1% | 87.7% | 70.8% | 89.9% | 82.1% | 92.2%
COc1cc([C@@H]2c3cc4c(cc3[C@@H](O[C@@H]3O[C@@H]5CO[C@@H](c6cccs6)O[C@H]5[C@H](O)[C@H]3O)[C@H]3COC(=O)[C@H]23)OCO4)cc(OC)c1O [Teniposide] (1000 nM) | 78.4% | 51.4% | 99.1% | 91% | 98.2% | 69.6% | -28.9% | 94.5% | 92.2% | 88.1% | 21.2% | 90.5% | 75.1% | 111% | 75.5% | 61.2% | 75% | 102% | 36.5% | 47.8% | 47.6% | 55.3% | 76.3% | 82.4% | 47.8% | 41.9% | 72.4% | 72.4% | 33.3% | 19.1% | 36.6% | 82.8% | 160% | 19.6% | 66% | 17.3% | 84.1%
COc1cc2nccc(Oc3ccc(NC(=O)Nc4cc(C)on4)c(Cl)c3)c2cc1OC [Tivozanib] (1000 nM) | 129% | 87.7% | 101% | 95.5% | 93% | 102% | 89.3% | 138% | 134% | 96.6% | 104% | 70.6% | 105% |  | 104% | 110% | 96.5% | 92.8% | 111% | 90.8% | 81.3% | 103% | 104% | 60.3% | 95.9% | 89.5% | 95.2% | 93.1% | 103% | 88.5% | 101% | 99.2% | 87.7% | 92.9% | 89% | 101% | 98.6%

From the supplement of paper PMC4862054
